# US20260242330A1, “USE OF AN AMANTADINE MONONITRATE COMPOUND IN MANUFACTURE OF A MEDICAMENT FOR THE PREVENTION AND TREATMENT OF HYPERTENSION” (GUANGZHOU MAGPIE PHARMACEUTICALS CO., LTD., priority 2022, published 2026)
# Assays:
# Type in all cases: in vivo, human
# [1] = Pharmacokinetic test of MN-08 in clinical trial, single oral dose
# Protocol: In the clinical trial of amantadine mononitrate compound MN-08, the pharmacokinetic test included a total of 8 dose groups (6 mg, 12 mg, 42 mg, 60 mg, 78 mg, 96 mg, 114 mg, and 132 mg).
# The subjects received a single oral dose of MN-08 at doses of 6 mg, 12 mg, 42 mg, 60 mg, 78 mg, 96 mg, 114 mg, and 132 mg, respectively. […] Most existing antihypertensive drugs have a short half-life and require frequent administration, resulting in poor patient compliance. In contrast, the amantadine mononitrate compound MN-08 of the present invention has a half-life of more than 20 hours, a long drug action time, and can reduce the number of administration times and improve patient compliance compared to other existing hypertensive drugs.
# [2] = tested on: blood pressure of subjects; assay: Effect of multiple administrations of MN-08 on blood pressure of subjects (7 days); details: for DP / SP: Subject 14; for DP: baseline 84 mmHg; for SP: baseline 122 mmHg
# Source text: (§1) All subjects in the following embodiments have signed informed consent forms, which comply with medical ethics regulations. According to the relevant provisions of Chinese Guidelines for the Prevention and Treatment of Hypertension (2018 Revision), the values measured for hypertension are the average blood pressure measured three times on a different day without the use of antihypertensive drugs. Therefore, in this embodiment, the baseline blood pressure of the subjects before administration is set as the average blood pressure measured at three different times: screening period, occupancy period, and 1 hour before administration, as shown in Tables 1 to 3.
# Multiple dosing trials: Participants in each dose group fasted for at least 10 hours before administration, without water deprivation overnight. Each group of subjects received oral administration of the test drug on an empty stomach from day 1 to day 6, twice a day (with an interval of 12 hours and at least 1 hour on an empty stomach before the second administration), and only once in the morning on day 7. A total of 13 doses were administered. The first administration time every day is around 8 am, taken with 240 mL of water. Taking subject 14 as an example, the effect of multiple doses of MN-08 (7 days) on subject blood pressure was investigated.
# [3] = tested on: blood pressure of subjects; assay: Effect of multiple administration of MN-08 on blood pressure of subjects (3 days)
# Source text: as §1
# Multiple dosing trials: Participants in each dose group fasted for at least 10 hours before administration, without water deprivation overnight. Each group of subjects took the test drug orally on an empty stomach twice a day (with an interval of 12 hours and at least 1 hour on an empty stomach before the second administration). The first administration time every day is around 8 am, taken with 240 mL of water. Taking subjects 15-17 as an example, the effect of multiple doses of MN-08 (3 days) on subjects' blood pressure was investigated.
# [4] = tested on: blood pressure in subjects with a DP≥90 mmHg; assay: Effect of MN-08 on blood pressure in subjects with a DP≥90 mmHg; details: single or multiple administration as in Example 2
# Source text: From this, it can be seen that making diastolic pressure drop more than systolic pressure drop is the characteristic of MN-08.
# [5] = 12 mg twice a day, D 1, 2 hrs after 2nd adm.
# [6] = 12 mg twice a day, D 1, 4 hrs after 1st adm.
# [7] = 12 mg twice a day, D 1, 8 hrs after 1st adm.
# [8] = 12 mg twice a day, D 2, 2 hrs after 2nd adm.
# [9] = 12 mg twice a day, D 2, 4 hrs after 1st adm.
# [10] = 12 mg twice a day, D 2, 8 hrs after 1st adm.
# [11] = 12 mg twice a day, D 3, 2 hrs after 2nd adm.
# [12] = 12 mg twice a day, D 3, 4 hrs after 1st adm.
# [13] = 12 mg twice a day, D 3, 8 hrs after 1st adm.
# [14] = 12 mg twice a day, D 4, 2 hrs after 2nd adm.
# [15] = 12 mg twice a day, D 4, 4 hrs after 1st adm.
# [16] = 12 mg twice a day, D 4, 8 hrs after 1st adm.
# [17] = 12 mg twice a day, D 5, 2 hrs after 2nd adm.
# [18] = 12 mg twice a day, D 5, 4 hrs after 1st adm.
# [19] = 12 mg twice a day, D 5, 8 hrs after 1st adm.
# [20] = 12 mg twice a day, D 6, 2 hrs after 2nd adm.
# [21] = 12 mg twice a day, D 6, 4 hrs after 1st adm.
# [22] = 12 mg twice a day, D 6, 8 hrs after 1st adm.
# [23] = 12 mg, once on D 7 after 6 days twice a day, D 7, 4 hrs after adm.
# [24] = 12 mg, once on D 7 after 6 days twice a day, D 7, 8 hrs after adm.
# [25] = 12 mg, once on D 7 after 6 days twice a day, D 7, 12 hrs after adm.
structure (smiles),measurement,setting,value
CCC12CC3CC(N)(C1)CC(CO[N+](=O)[O-])(C3)C2 (centres unmarked) [MN-08],half-life,"[1]; human, in vivo, po, single oral administration, dose range 6 mg to 132 mg, t1/2 extends with increasing dosage",20 to 30 h
same,time at which peak concentration was reached,"[1]; single oral dose, 6 mg to 132 mg groups",2.5 to 6.5 h
same,DP,[2]; [5],73 mmHg
same,SP,[2]; [5],113 mmHg
same,DP,[2]; [6],81 mmHg
same,SP,[2]; [6],122 mmHg
same,DP,[2]; [7],74 mmHg
same,SP,[2]; [7],114 mmHg
same,DP,[2]; [8],77 mmHg
same,SP,[2]; [8],107 mmHg
same,DP,[2]; [9],76 mmHg
same,SP,[2]; [9],115 mmHg
same,DP,[2]; [10],68 mmHg
same,SP,[2]; [10],117 mmHg
same,DP,[2]; [11],73 mmHg
same,SP,[2]; [11],109 mmHg
same,DP,[2]; [12],74 mmHg
same,SP,[2]; [12],114 mmHg
same,DP,[2]; [13],82 mmHg
same,SP,[2]; [13],111 mmHg
same,DP,[2]; [14],73 mmHg
same,SP,[2]; [14],109 mmHg
same,DP,[2]; [15],73 mmHg
same,SP,[2]; [15],109 mmHg
same,DP,[2]; [16],70 mmHg
same,SP,[2]; [16],107 mmHg
same,DP,[2]; [17],74 mmHg
same,SP,[2]; [17],114 mmHg
same,DP,[2]; [18],69 mmHg
same,SP,[2]; [18],106 mmHg
same,DP,[2]; [19],62 mmHg
same,SP,[2]; [19],97 mmHg
same,DP,[2]; [20],77 mmHg
same,SP,[2]; [20],125 mmHg
same,DP,[2]; [21],77 mmHg
same,SP,[2]; [21],118 mmHg
same,DP,[2]; [22],63 mmHg
same,SP,[2]; [22],112 mmHg
same,DP,[2]; [23],77 mmHg
same,SP,[2]; [23],108 mmHg
same,DP,[2]; [24],62 mmHg
same,SP,[2]; [24],102 mmHg
same,DP,[2]; [25],62 mmHg
same,SP,[2]; [25],103 mmHg
same,both systolic and diastolic pressure of the subjects,"[2]; twice a day for 7 days, decrease in diastolic greater than in systolic pressure",reduced
same,DP,"[3]; Subject 15, 12 mg twice a day, D 1, 2 hrs after 2nd adm., baseline 75 mmHg",59 mmHg
same,SP,"[3]; Subject 15, 12 mg twice a day, D 1, 2 hrs after 2nd adm., baseline 108 mmHg",94 mmHg
same,DP,"[3]; Subject 15, 12 mg twice a day, D 1, 4 hrs after 1st adm., baseline 75 mmHg",61 mmHg
same,SP,"[3]; Subject 15, 12 mg twice a day, D 1, 4 hrs after 1st adm., baseline 108 mmHg",96 mmHg
same,DP,"[3]; Subject 15, 12 mg twice a day, D 1, 8 hrs after 1st adm., baseline 75 mmHg",51 mmHg
same,SP,"[3]; Subject 15, 12 mg twice a day, D 1, 8 hrs after 1st adm., baseline 108 mmHg",100 mmHg
same,DP,"[3]; Subject 15, 12 mg twice a day, D 2, 2 hrs after 2nd adm., baseline 75 mmHg",64 mmHg
same,SP,"[3]; Subject 15, 12 mg twice a day, D 2, 2 hrs after 2nd adm., baseline 108 mmHg",95 mmHg
same,DP,"[3]; Subject 15, 12 mg twice a day, D 2, 4 hrs after 1st adm., baseline 75 mmHg",56 mmHg
same,SP,"[3]; Subject 15, 12 mg twice a day, D 2, 4 hrs after 1st adm., baseline 108 mmHg",92 mmHg
same,DP,"[3]; Subject 15, 12 mg twice a day, D 2, 8 hrs after 1st adm., baseline 75 mmHg",57 mmHg
same,SP,"[3]; Subject 15, 12 mg twice a day, D 2, 8 hrs after 1st adm., baseline 108 mmHg",108 mmHg
same,DP,"[3]; Subject 15, 12 mg twice a day, D 3, 2 hrs after 2nd adm., baseline 75 mmHg",65 mmHg
same,SP,"[3]; Subject 15, 12 mg twice a day, D 3, 2 hrs after 2nd adm., baseline 108 mmHg",105 mmHg
same,DP,"[3]; Subject 15, 12 mg twice a day, D 3, 4 hrs after 1st adm., baseline 75 mmHg",64 mmHg
same,SP,"[3]; Subject 15, 12 mg twice a day, D 3, 4 hrs after 1st adm., baseline 108 mmHg",95 mmHg
same,DP,"[3]; Subject 15, 12 mg twice a day, D 3, 8 hrs after 1st adm., baseline 75 mmHg",57 mmHg
same,SP,"[3]; Subject 15, 12 mg twice a day, D 3, 8 hrs after 1st adm., baseline 108 mmHg",86 mmHg
same,DP,"[3]; Subject 16, 24 mg twice a day, D 1, 2 hrs after 2nd adm., baseline 81 mmHg",66 mmHg
same,SP,"[3]; Subject 16, 24 mg twice a day, D 1, 2 hrs after 2nd adm., baseline 118 mmHg",103 mmHg
same,DP,"[3]; Subject 16, 24 mg twice a day, D 1, 4 hrs after 1st adm., baseline 81 mmHg",61 mmHg
same,SP,"[3]; Subject 16, 24 mg twice a day, D 1, 4 hrs after 1st adm., baseline 118 mmHg",97 mmHg
same,DP,"[3]; Subject 16, 24 mg twice a day, D 1, 8 hrs after 1st adm., baseline 81 mmHg",63 mmHg
same,SP,"[3]; Subject 16, 24 mg twice a day, D 1, 8 hrs after 1st adm., baseline 118 mmHg",102 mmHg
same,DP,"[3]; Subject 16, 24 mg twice a day, D 2, 2 hrs after 2nd adm., baseline 81 mmHg",61 mmHg
same,SP,"[3]; Subject 16, 24 mg twice a day, D 2, 2 hrs after 2nd adm., baseline 118 mmHg",100 mmHg
same,DP,"[3]; Subject 16, 24 mg twice a day, D 2, 4 hrs after 1st adm., baseline 81 mmHg",69 mmHg
same,SP,"[3]; Subject 16, 24 mg twice a day, D 2, 4 hrs after 1st adm., baseline 118 mmHg",106 mmHg
same,DP,"[3]; Subject 16, 24 mg twice a day, D 2, 8 hrs after 1st adm., baseline 81 mmHg",65 mmHg
same,SP,"[3]; Subject 16, 24 mg twice a day, D 2, 8 hrs after 1st adm., baseline 118 mmHg",99 mmHg
same,DP,"[3]; Subject 16, 24 mg twice a day, D 3, 2 hrs after 2nd adm., baseline 81 mmHg",69 mmHg
same,SP,"[3]; Subject 16, 24 mg twice a day, D 3, 2 hrs after 2nd adm., baseline 118 mmHg",98 mmHg
same,DP,"[3]; Subject 16, 24 mg twice a day, D 3, 4 hrs after 1st adm., baseline 81 mmHg",67 mmHg
same,SP,"[3]; Subject 16, 24 mg twice a day, D 3, 4 hrs after 1st adm., baseline 118 mmHg",107 mmHg
same,DP,"[3]; Subject 16, 24 mg twice a day, D 3, 8 hrs after 1st adm., baseline 81 mmHg",63 mmHg
same,SP,"[3]; Subject 16, 24 mg twice a day, D 3, 8 hrs after 1st adm., baseline 118 mmHg",95 mmHg
same,DP,"[3]; Subject 17, 24 mg twice a day, D 1, 2 hrs after 2nd adm., baseline 87 mmHg",73 mmHg
same,SP,"[3]; Subject 17, 24 mg twice a day, D 1, 2 hrs after 2nd adm., baseline 126 mmHg",107 mmHg
same,DP,"[3]; Subject 17, 24 mg twice a day, D 1, 4 hrs after 1st adm., baseline 87 mmHg",81 mmHg
same,SP,"[3]; Subject 17, 24 mg twice a day, D 1, 4 hrs after 1st adm., baseline 126 mmHg",126 mmHg
same,DP,"[3]; Subject 17, 24 mg twice a day, D 1, 8 hrs after 1st adm., baseline 87 mmHg",66 mmHg
same,SP,"[3]; Subject 17, 24 mg twice a day, D 1, 8 hrs after 1st adm., baseline 126 mmHg",112 mmHg
same,DP,"[3]; Subject 17, 24 mg twice a day, D 2, 2 hrs after 2nd adm., baseline 87 mmHg",63 mmHg
same,SP,"[3]; Subject 17, 24 mg twice a day, D 2, 2 hrs after 2nd adm., baseline 126 mmHg",94 mmHg
same,DP,"[3]; Subject 17, 24 mg twice a day, D 2, 4 hrs after 1st adm., baseline 87 mmHg",73 mmHg
same,SP,"[3]; Subject 17, 24 mg twice a day, D 2, 4 hrs after 1st adm., baseline 126 mmHg",102 mmHg
same,DP,"[3]; Subject 17, 24 mg twice a day, D 2, 8 hrs after 1st adm., baseline 87 mmHg",68 mmHg
same,SP,"[3]; Subject 17, 24 mg twice a day, D 2, 8 hrs after 1st adm., baseline 126 mmHg",115 mmHg
same,DP,"[3]; Subject 17, 24 mg twice a day, D 3, 2 hrs after 2nd adm., baseline 87 mmHg",74 mmHg
same,SP,"[3]; Subject 17, 24 mg twice a day, D 3, 2 hrs after 2nd adm., baseline 126 mmHg",110 mmHg
same,DP,"[3]; Subject 17, 24 mg twice a day, D 3, 4 hrs after 1st adm., baseline 87 mmHg",70 mmHg
same,SP,"[3]; Subject 17, 24 mg twice a day, D 3, 4 hrs after 1st adm., baseline 126 mmHg",107 mmHg
same,DP,"[3]; Subject 17, 24 mg twice a day, D 3, 8 hrs after 1st adm., baseline 87 mmHg",76 mmHg
same,SP,"[3]; Subject 17, 24 mg twice a day, D 3, 8 hrs after 1st adm., baseline 126 mmHg",111 mmHg
same,effect on blood pressure of the subjects,"[3]; continuous administration for 3 days, twice a day, 12 mg and 24 mg groups, decrease in diastolic greater than in systolic pressure",can lower the blood pressure
same,effect on diastolic pressure,[4],significant effect on reducing diastolic pressure
